Measured values published in publication PMC9402538, “Rational design of a sensitivity-enhanced tracer for discovering efficient APC–Asef inhibitors” (Nature Communications, 2022).
Where “and” joins values, the source holds several entries; their conditions need not be identical. Identical values can stand only once. Like-named read-outs stand apart in the source and are kept apart here. Where a SMILES comes first, the peptide text is derived from it. The star is where a group is joined. Picolinoyl = O=C(c1ccccn1)*

Tests used:
LS-174T cells = assay: DBZ-induced goblet cell differentiation of LS-174T cells (RT-PCR); type: cell-based; conditions: 1 μM DBZ
Protocol: . Notch inhibition by dibenzazepine (DBZ) allows colorectal stem cells to differentiate into goblet cells, and the DBZ-induced goblet cell differentiation of LS-174T cells is a well-established intestinal differentiation model. […].
Total RNA was extracted using TRIzol reagent (Takara Bio Inc., Japan) following the manufacturer’s instructions. Total RNA (1 μg) was reverse-transcribed into cDNA using the PrimeScript RT Kit (Takara Bio Inc., Japan). Quantitative real-time reverse transcription-PCR was performed using a SYBR Green kit (Vazyme, China). β-Actin mRNA was employed as a reference gene for expression normalization. The qPCR primer sequences are listed in Supplementary Table 8. […]
Supplementary Fig. 17. Effect of […] on apoptosis and cell differentiation. a,b) Flow cytometry apoptosis analysis of SW480 (a) and HIEC-6 (b) cells treated with 25 μM MAIT -516 for 48 h, the gating strategy is shown for control sample . c) RT-PCR analysis of genes involved in intestinal cell differentiation ( MUC2, ATOH1, HES1, SPDEF and TFF3) in LS-174T cells. LS-174T cells were treated […]
mean ± SD (n = 3 independent experiments). p values were calculated by one-way ANOVA with Tukey’s multiple comparisons test.
Source data are provided as a Source Data file.
(1 picture or pasted object on this page, not shown here)

APC = biological target: T1, APC (Homo sapiens, UniProt P25054); assay: FP competitive assay using tracer 1; type: binding; conditions: for FP(mp): Tracer 1, triplicate raw readings
T1 sequence (P25054 303-739): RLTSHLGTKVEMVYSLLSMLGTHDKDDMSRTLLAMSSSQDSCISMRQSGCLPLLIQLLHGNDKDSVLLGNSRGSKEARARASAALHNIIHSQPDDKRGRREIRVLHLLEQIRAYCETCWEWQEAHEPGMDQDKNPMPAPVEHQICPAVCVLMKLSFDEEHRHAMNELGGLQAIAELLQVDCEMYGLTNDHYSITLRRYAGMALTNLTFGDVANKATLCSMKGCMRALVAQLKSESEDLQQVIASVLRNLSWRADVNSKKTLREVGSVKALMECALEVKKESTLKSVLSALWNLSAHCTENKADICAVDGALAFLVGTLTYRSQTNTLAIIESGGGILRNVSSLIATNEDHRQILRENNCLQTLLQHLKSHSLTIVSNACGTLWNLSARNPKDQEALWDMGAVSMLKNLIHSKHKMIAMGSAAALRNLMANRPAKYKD
Procedure, shortened: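 A fluorescence polarization competition assay measured inhibition of the human APC–Asef interaction using FITC-labeled tracer 1 and the APC (303–739) protein. The protein was diluted in FP buffer (50 mM HEPES, pH 7.5, 300 mM NaCl, 1 mM EDTA, 1 mM DTT). Plates were incubated 1.5 h at room temperature and read on a Synergy neo microplate reader. Each plate carried blank, 100% inhibition (free tracer) and 0% inhibition (protein/tracer complex) controls. Triplicate data gave IC50 values by nonlinear regression in GraphPad Prism 7.0.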

APC (303–739) = biological target: T2, APC (303–739) (Homo sapiens, UniProt P25054); assay: FP competitive assay using tracer 7; type: binding; conditions: for IC50: Table 3 source data; for FP(mp): Tracer 7, replicate wells
T2 sequence (P25054 303-739): T1 sequence (P25054 303-739)
Procedure, shortened: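 Peptide dilutions were first incubated 1 h at room temperature with APC (303–739) in HEPES pH 7.5 buffer containing 300 mM NaCl, EDTA and DTT. Added FITC tracer 7 (400 nM stock) displaced over a further 1.5 h before polarization reading. IC50 values came from nonlinear regression fits of triplicate data.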

C[C@H](NC(=O)Cc1cc(F)cc(F)c1)C(=O)N[C@@H]1C(=O)N(C)c2ccccc2-c2ccccc21 [DBZ, dibenzazepine]
mRNA level of NOTCH target gene HES1 (LS-174T cells): significantly suppressed
mRNA levels of goblet cell markers (MUC2, TFF3, ATOH1, SPDEF) (LS-174T cells): increasing the mRNA levels

CC(C)C[C@H](NC(=O)[C@H](CO)NC(=O)[C@H](CCC(=O)O)NC(=O)CNC(=O)[C@H](C)NC(=O)c1ccccn1)C(=O)N[C@@H](Cc1ccc(O)cc1)C(=O)N[C@@H](CCC(=O)O)C(N)=O [MAI-512] (Picolinoyl-AGESLYE-NH2)
IC50 (APC; Supplementary Table 4, read-out: IC50, Tracer 1): 750 ± 180 nM
FP(mp) (APC; Conc. 0.05 μM): 172 mp and 170 mp
FP(mp) (APC; Conc. 0.10 μM): 168 mp
FP(mp) (APC; Conc. 0.20 μM): 166 mp and 163 mp and 165 mp
FP(mp) (APC; Conc. 0.39 μM): 156 mp and 155 mp and 153 mp
FP(mp) (APC; Conc. 0.78 μM): 126 mp and 125 mp and 122 mp
FP(mp) (APC; Conc. 1.56 μM): 80 mp and 79 mp and 78 mp
FP(mp) (APC; Conc. 3.13 μM): 59 mp and 55 mp
FP(mp) (APC; Conc. 6.25 μM): 52 mp and 50 mp
FP(mp) (APC; Conc. 12.50 μM): 53 mp and 48 mp and 50 mp
FP(mp) (APC; Conc. 25.00 μM): 51 mp and 48 mp and 47 mp
FP(mp) (APC; Conc. 50.00 μM): 51 mp and 48 mp and 47 mp
FP(mp) (APC; Conc. 100.00 μM): 51 mp and 53 mp
FP(mp) (APC; Conc. 200.00 μM): 51 mp and 47 mp and 50 mp
FP(mp) (APC; Conc. 400.00 μM): 53 mp and 50 mp and 47 mp
IC50 (APC (303–739); Repeat 1, read-out: IC50(μM) Repeat 1): 1.04 µM
IC50 (APC (303–739); Repeat 2, read-out: IC50(μM) Repeat 2): 0.958 µM
IC50 (APC (303–739); Repeat 3, read-out: IC50(μM) Repeat 3): 0.93 µM
FP(mp) (APC (303–739); Conc. 0.0061 μM): 305 mp and 310 mp and 308 mp
FP(mp) (APC (303–739); Conc. 0.0122 μM): 307 mp and 310 mp (2×)
FP(mp) (APC (303–739); Conc. 0.0244 μM): 298 mp and 303 mp and 300 mp
FP(mp) (APC (303–739); Conc. 0.05 μM): 293 mp and 300 mp and 297 mp
FP(mp) (APC (303–739); Conc. 0.10 μM): 290 mp and 286 mp and 291 mp
FP(mp) (APC (303–739); Conc. 0.20 μM): 266 mp and 274 mp and 271 mp
FP(mp) (APC (303–739); Conc. 0.39 μM): 242 mp and 240 mp and 236 mp
FP(mp) (APC (303–739); Conc. 0.78 μM): 199 mp (2×) and 200 mp
FP(mp) (APC (303–739); Conc. 1.56 μM): 160 mp and 157 mp and 158 mp
FP(mp) (APC (303–739); Conc. 3.13 μM): 119 mp (2×) and 121 mp
FP(mp) (APC (303–739); Conc. 6.25 μM): 94 mp and 89 mp and 91 mp
FP(mp) (APC (303–739); Conc. 12.50 μM): 80 mp and 77 mp and 78 mp
FP(mp) (APC (303–739); Conc. 25.00 μM): 69 mp and 66 mp and 65 mp
FP(mp) (APC (303–739); Conc. 50.00 μM): 61 mp and 57 mp and 60 mp
IC50 (APC (303–739); mean of 3 repeats, read-out: IC50(μM) mean): 0.976 µM
